Measured values: PMC8359942, “Native Mass Spectrometry for the Study of PROTAC GNE‐987‐Containing Ternary Complexes” (Chemmedchem, 2021)

Assays:
[1] = molecular target: T1, Brd4 bromodomain 2 (Brd4^B2) (Homo sapiens, UniProt O60885); assay: native nESI-FT-ICR mass spectrometry, binary binding; also […] ternary complex with VCB (maximum ratio […])
T1 construct: bromodomain 2

[2] = molecular target: T2, Brd4 bromodomain 1 (Brd4^B1) (Homo sapiens, UniProt O60885); assay: native nESI-FT-ICR mass spectrometry, binary binding; also […] ternary complex with VCB (maximum ratio […] at […])
T2 construct: bromodomain 1 (avi-tagged, partly biotinylated)

[3] = molecular target: T3, Von Hippel‐Lindau (VHL) E3‐Ubiquitin Ligase, as VCB complex (Homo sapiens, UniProt P40337); assay: native nESI-FT-ICR mass spectrometry, binary binding; also ternary complex with Brd4 B1 or B2
T3 construct: VHL complexed with Elongins B and C (VCB); with Elongin B and Elongin C
T3 sequence (P40337 whole entry): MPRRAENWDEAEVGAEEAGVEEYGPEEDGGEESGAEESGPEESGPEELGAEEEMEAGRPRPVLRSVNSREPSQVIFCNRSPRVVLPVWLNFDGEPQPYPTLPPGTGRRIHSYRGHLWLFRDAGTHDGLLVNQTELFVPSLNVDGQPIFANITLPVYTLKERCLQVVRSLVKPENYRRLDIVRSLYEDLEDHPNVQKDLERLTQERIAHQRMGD
T3 sequence (Q15370 whole entry partner): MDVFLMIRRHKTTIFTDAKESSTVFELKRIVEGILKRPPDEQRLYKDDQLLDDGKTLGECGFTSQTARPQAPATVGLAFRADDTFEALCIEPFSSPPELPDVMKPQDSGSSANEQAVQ
T3 sequence (Q15369 whole entry partner): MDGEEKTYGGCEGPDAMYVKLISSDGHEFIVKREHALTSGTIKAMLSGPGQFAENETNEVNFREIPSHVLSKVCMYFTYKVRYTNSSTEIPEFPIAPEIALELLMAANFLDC

% bound at 5 μM [1]: 45 % bound at 5 μM
% bound at 5 μM [2]: 40 % bound at 5 μM
% bound at 5 μM [3]: 57 % bound at 5 μM
Substance: GNE-987
